Target: T1, human cloned 5-HT6 receptors (Homo sapiens, UniProt P50406)
T1 construct: host or cells: HeLa cells expressing 5-HT6 (HeLa-5HT6), washed membranes
Assay: 5-HT6 receptor binding assay, [3H]-LSD displacement on washed membranes of HeLa-5HT6 cells
Conditions: radio-ligand [3H]-LSD 2.0 nM, HeLa-5HT6 cell membranes, 37° C., Ki by Cheng and Prusoff
Experimental: Method for assay of 5-HT6 antagonistic activity:
The test compounds were dissolved in polyethylene glycol:dimethyl sulphoxide (1:1) at 1 or 10 mM and diluted to 0.1 mM using 5 mM tris buffer (pH 7.7 @25° C.). Dissolution was assisted by addition of 0.02 ml 5M HCl plus heating to 40° C. and sonication for 10 minutes. […] The incubation buffer was 50 mM Trizma (Sigma, UK) pH7.7 @25° C., 4 mM MgCl2.
After incubation at 37° C., the mixtures were filtered using a Packard Filtermate in Packard TopCount format. Filters were washed with 4×1 ml aliquots of ice-cold incubation buffer. Filters were dried and impregnated with 0.04 ml of Microscint 20 (Packard). IC50 values were estimated from the counts per minute using a four parameter logistic curve fit within EXCEL (2). Ki values were calculated using the method of Cheng and Prusoff(3). pIC50 and pKi are the negative log10 of the molar IC50 and Ki respectively.

T1 sequence (P50406 whole entry): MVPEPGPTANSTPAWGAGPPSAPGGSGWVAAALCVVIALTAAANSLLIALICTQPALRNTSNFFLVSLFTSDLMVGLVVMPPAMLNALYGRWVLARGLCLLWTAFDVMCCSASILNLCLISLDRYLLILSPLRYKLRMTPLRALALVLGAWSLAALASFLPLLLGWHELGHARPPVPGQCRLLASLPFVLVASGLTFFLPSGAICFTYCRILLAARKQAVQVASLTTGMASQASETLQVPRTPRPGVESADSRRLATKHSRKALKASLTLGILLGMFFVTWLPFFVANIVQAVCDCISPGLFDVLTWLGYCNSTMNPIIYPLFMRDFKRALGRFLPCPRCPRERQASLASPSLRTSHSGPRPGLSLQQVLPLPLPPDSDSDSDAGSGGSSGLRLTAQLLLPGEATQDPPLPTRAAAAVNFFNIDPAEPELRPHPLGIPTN

Ki [µM] | SMILES
< 0.01 | COc1ccc(NS(=O)(=O)c2cc(Cl)cc(Cl)c2)cc1N1CCN(C)CC1 [Example 15, 3,5-Dichloro-N-[4-methoxy-3-(4-methylpiperazin-1-yl)phenyl]benzenesulfonamide]
< 0.01 | COc1ccc(NS(=O)(=O)c2ccc3c(Cl)cccc3c2)cc1N1CCNCC1 [Example 79, 5-Chloronaphthalene-2-sulfonic acid(4-methoxy-3-piperazin-1-ylphenyl)amide]
< 0.01 | COc1ccc(NS(=O)(=O)c2c(C)sc3ccc(Cl)cc23)cc1N1CCNCC1 [Example 84, 5-Chloro-2-methylbenzo[b]thiophene-3-sulfonic acid (4-methoxy-3-piperazin-1-ylphenyl) amide]
< 0.01 | COc1ccc(NS(=O)(=O)c2ccc3ccccc3c2)cc1N1CCNCC1 [Example 87, Naphthalene-2-sulfonic acid(4-methoxy-3-piperazin-1-ylphenyl)amide]
< 0.01 | COc1ccc(NS(=O)(=O)c2c(C)sc3ccc(Cl)cc23)cc1N1CCN(C)CC1 [Example 65, 5-Chloro-2-methylbenzo[b]thiophene-3-sulfonic acid [4-methoxy-3-(4-methylpiperazin-1-yl)phenyl] amide]

The next lines start with the compound.

SMILES | Ki [µM]
COc1ccc(NS(=O)(=O)c2cccc(I)c2)cc1N1CCNCC1 [Example 70, 3-Iodo-N-(4-methoxy-3-piperazin-1-ylphenyl)benzenesulfonamide] | < 0.01
COc1ccc(NS(=O)(=O)c2cc(Cl)cc(Cl)c2)cc1N1CCNCC1 [Example 72, 3,5-Dichloro-N-(4-methoxy-3-piperazin-1-ylphenyl)benzenesulfonamide] | < 0.01
COc1ccc(NS(=O)(=O)c2cccc(Cl)c2)cc1N1CCNCC1 [Example 78, 3-Chloro-N-(4-methoxy-3-piperazin-1-ylphenyl)benzenesulfonamide] | < 0.01
COc1ccc(NS(=O)(=O)c2cccc(Br)c2)cc1N1CCNCC1 [Example 77, 3-Bromo-N-(4-methoxy-3-piperazin-1-ylphenyl)benzenesulfonamide] | < 0.01
COc1ccc(NS(=O)(=O)c2ccc(Cl)c(Cl)c2)cc1N1CCNCC1 [Example 90, 3,4-Dichloro-N-(4-methoxy-3-piperazin-1-ylphenyl)benzenesulfonamide] | < 0.01
COc1ccc(NS(=O)(=O)c2cccc(Br)c2)cc1N1CCN(C)CC1 [Example 11, 3-Bromo-N-[4-methoxy-3-(4-methylpiperazin-1-yl)phenyl]benzenesulfonamide] | < 0.01
COc1ccc(NS(=O)(=O)c2ccc3c(Cl)cccc3c2)cc1N1CCN(C)CC1 [Example 61, 5-Chloronaphthalene-2-sulfonic acid [4-methoxy-3-(4-methylpiperazin-1-yl)phenyl] amide] | < 0.01

Source: US6423717B1, “Sulphonamide derivatives, process for their preparation, and their use as medicaments” (SmithKline Beecham p.l.c., priority 1996, dated 2002)
